Laboratory results reported in US10308643B2, “Heterocyclic compound” (Takeda Pharmaceutical Company Limited, priority 2015, dated 2019).

Key:
HDAC6 enzyme = molecular target: T1, HDAC6 enzyme (Homo sapiens, UniProt Q9UBN7); assay: HDAC1/6 Enzyme Inhibitory Assay (HDAC-Glo I/II Assay kit), HDAC6; assay type: biochemical; details: 1 μM test compound, wells without enzyme = 100% inhibition; for inhibition at 1 µM: read-out: HDAC6 inhibitory rate (%) (1 μM)
T1 construct: transducing full length HDAC1 and HDAC6 genes into Sf-9 insect cells; GST; purchased SignalChem; host or cells: Sf-9 insect cells
T1 sequence (Q9UBN7 1-1215): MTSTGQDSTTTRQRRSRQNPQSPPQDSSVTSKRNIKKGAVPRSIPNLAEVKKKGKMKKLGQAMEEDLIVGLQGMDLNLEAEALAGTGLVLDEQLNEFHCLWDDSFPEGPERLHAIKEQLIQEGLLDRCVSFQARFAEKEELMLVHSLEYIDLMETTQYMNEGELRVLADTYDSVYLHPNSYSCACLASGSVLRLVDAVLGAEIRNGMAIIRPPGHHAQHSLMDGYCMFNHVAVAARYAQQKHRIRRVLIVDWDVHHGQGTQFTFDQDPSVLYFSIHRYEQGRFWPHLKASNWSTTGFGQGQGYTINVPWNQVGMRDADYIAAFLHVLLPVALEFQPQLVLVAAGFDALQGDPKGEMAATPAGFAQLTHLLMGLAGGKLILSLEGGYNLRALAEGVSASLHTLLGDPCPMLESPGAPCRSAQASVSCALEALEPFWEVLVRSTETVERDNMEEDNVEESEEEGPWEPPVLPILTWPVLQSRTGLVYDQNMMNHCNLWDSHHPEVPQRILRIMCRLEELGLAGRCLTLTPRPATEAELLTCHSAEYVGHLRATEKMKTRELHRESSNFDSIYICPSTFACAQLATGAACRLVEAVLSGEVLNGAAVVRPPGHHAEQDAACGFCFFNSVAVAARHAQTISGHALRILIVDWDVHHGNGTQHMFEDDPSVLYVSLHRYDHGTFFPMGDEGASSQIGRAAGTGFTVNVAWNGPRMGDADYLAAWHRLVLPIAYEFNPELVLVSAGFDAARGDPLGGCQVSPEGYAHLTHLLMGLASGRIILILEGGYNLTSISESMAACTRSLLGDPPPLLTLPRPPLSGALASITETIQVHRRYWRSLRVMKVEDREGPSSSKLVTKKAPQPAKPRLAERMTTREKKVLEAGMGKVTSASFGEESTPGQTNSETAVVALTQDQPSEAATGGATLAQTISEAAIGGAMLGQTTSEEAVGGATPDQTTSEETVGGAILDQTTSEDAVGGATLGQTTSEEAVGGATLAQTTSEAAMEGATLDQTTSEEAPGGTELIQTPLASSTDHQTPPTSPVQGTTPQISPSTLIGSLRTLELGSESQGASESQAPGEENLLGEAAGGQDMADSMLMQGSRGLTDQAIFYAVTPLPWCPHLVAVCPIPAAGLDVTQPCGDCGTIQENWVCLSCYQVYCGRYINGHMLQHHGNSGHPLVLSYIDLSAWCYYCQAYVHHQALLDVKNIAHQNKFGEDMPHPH
Method in brief: (§1)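 Enzyme source: full-length HDAC1/HDAC6, Sf-9, GST-purified. Assay buffer 24 mM Tris-HCl (pH 7.5), 1 mM MgCl2, 0.35 mM KCl, 135 mM NaCl. Compound–enzyme 60 min RT, then HDAC-Glo reagent 20 min RT, luminescence; inhibition relative to no-enzyme control.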

HDAC1 enzyme = molecular target: T2, HDAC1 enzyme (Homo sapiens, UniProt Q13547); assay: HDAC1/6 Enzyme Inhibitory Assay (HDAC-Glo I/II Assay kit), HDAC1; assay type: biochemical; details: 1 μM test compound, wells without enzyme = 100% inhibition; for inhibition at 1 µM: read-out: HDAC1 inhibitory rate (%) (1 μM)
T2 construct: transducing full length HDAC1 and HDAC6 genes into Sf-9 insect cells; GST; purchased SignalChem; host or cells: Sf-9 insect cells
T2 sequence (Q13547 whole entry): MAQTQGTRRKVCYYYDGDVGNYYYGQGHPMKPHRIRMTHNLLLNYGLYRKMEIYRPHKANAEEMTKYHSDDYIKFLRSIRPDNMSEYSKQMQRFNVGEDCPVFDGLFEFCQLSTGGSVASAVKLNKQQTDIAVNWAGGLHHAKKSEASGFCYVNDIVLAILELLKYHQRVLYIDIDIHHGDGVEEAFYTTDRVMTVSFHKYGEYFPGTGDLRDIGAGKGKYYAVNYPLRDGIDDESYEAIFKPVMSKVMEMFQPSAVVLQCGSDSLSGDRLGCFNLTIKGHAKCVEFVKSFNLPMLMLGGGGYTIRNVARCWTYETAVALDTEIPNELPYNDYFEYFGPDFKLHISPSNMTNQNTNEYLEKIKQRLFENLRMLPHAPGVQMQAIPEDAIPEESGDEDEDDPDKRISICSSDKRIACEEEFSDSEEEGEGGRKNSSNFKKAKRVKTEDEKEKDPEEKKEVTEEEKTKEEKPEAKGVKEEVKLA
Method in brief: as §1

HDAC9 enzyme = molecular target: T3, HDAC9 enzyme (Homo sapiens, UniProt Q9UKV0); assay: HDAC9 Enzyme Inhibitory Assay (HDAC-Glo class IIa); assay type: biochemical; details: 1 μM test compound, wells without enzyme = 100% inhibition; for inhibition at 1 µM: read-out: HDAC9 inhibitory rate (%) (1 μM)
T3 construct: transducing full length HDAC9 gene into Sf-9 insect cells; made in house; host or cells: Sf-9 insect cells
T3 sequence (Q9UKV0 whole entry, species assumed): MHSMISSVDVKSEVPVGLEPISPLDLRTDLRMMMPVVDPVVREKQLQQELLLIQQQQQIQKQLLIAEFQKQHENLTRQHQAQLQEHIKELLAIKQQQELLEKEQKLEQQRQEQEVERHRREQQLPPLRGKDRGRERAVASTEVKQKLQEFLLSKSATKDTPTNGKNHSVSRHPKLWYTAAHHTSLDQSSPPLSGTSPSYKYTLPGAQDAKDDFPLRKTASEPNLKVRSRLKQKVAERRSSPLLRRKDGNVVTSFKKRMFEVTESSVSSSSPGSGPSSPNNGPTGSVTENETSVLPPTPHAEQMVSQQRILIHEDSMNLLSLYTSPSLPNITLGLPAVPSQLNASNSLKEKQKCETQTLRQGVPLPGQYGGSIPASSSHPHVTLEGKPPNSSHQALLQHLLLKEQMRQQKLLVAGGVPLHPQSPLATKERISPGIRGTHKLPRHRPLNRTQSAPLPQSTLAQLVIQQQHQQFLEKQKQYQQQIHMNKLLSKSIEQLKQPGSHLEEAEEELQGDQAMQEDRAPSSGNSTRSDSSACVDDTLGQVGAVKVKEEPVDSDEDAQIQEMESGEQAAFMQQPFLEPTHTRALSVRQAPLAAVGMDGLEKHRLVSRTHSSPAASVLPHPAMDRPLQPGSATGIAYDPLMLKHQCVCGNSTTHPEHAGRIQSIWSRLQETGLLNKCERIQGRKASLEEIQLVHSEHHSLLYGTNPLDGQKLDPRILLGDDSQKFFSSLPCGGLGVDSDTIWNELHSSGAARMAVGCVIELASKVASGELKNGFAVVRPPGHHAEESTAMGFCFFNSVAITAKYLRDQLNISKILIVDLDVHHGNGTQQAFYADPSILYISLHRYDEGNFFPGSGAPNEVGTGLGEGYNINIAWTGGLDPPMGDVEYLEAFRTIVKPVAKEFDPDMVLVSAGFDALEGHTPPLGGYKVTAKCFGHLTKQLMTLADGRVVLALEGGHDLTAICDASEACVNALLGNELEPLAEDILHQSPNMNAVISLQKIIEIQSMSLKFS
Method in brief: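 Full-length human HDAC9 from Sf-9 cells, Ni-NTA purified, preincubated with compound for 60 min at room temperature in Tris-HCl pH 7.5 buffer (MgCl2, KCl, NaCl, glutathione, Tween-20). HDAC-Glo class IIa substrate-developer added; luminescence read after 20 min, with no-enzyme wells defining 100% inhibition.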

| inhibition at 1 µM (HDAC6 enzyme) | inhibition at 1 µM (HDAC1 enzyme) | inhibition at 1 µM (HDAC9 enzyme) | melting point | HDAC6 inhibitory rate (%) (1 μM) (HDAC6 enzyme; 1 µM) | HDAC1 inhibitory rate (%) (1 μM) (HDAC1 enzyme; 1 µM) | HDAC9 inhibitory rate (%) (1 μM) (HDAC9 enzyme; 1 µM) | Compound |
| --- | --- | --- | --- | --- | --- | --- | --- |
| 97% | 5% | 37% | 132 °C |  |  |  | O=C(N[C@@H]1CCCC[C@H]1N1Cc2ccc(-c3noc(C(F)(F)F)n3)cc2C1=O)[C@@H]1CCCO1 [Example 90, (2S)-N-((1R,2R)-2-(1-oxo-6-(5-(trifluoromethyl)-1,2,4-oxadiazol-3-yl)-1,3-dihydro-2H-isoindol-2-yl)cyclohexyl)tetrahydrofuran-2-carboxamide] |
| 97% | 5% | 52% |  |  |  |  | O=C(N[C@@H]1CCOC[C@H]1N1Cc2ccc(-c3noc(C(F)(F)F)n3)cc2C1=O)[C@@H]1CCOC1 [Example 206, (3R)-N-((3S,4R)-3-(1-oxo-6-(5-(trifluoromethyl)-1,2,4-oxadiazol-3-yl)-1,3-dihydro-2H-isoindol-2-yl)tetrahydro-2H-pyran-4-yl)tetrahydrofuran-3-carboxamide] |
|  |  |  |  | 99% | 13% | 72% | O=C1CCCN1[C@@H]1COCC[C@H]1N1Cc2ccc(-c3noc(C(F)(F)F)n3)cc2C1=O [Example 180, 2-((3S,4R)-3-(2-oxopyrrolidin-1-yl)tetrahydro-2H-pyran-4-yl)-6-(5-(trifluoromethyl)-1,2,4-oxadiazol-3-yl)isoindolin-1-one] |
| -4% | -1% | 52% |  |  |  |  | N[C@H]1CCC[C@@H]1N1Cc2ccc(-c3noc(C(F)(F)F)n3)cc2C1=O [Example 143, 2-((1S,2S)-2-aminocyclopentyl)-6-(5-(trifluoromethyl)-1,2,4-oxadiazol-3-yl)isoindolin-1-one] |
| 97% | 2% | 55% |  |  |  |  | CCC1(C(=O)N[C@@H]2CCCC[C@H]2N2Cc3ccc(-c4noc(C(F)(F)F)n4)cc3C2=O)COC1 [Example 138, 3-ethyl-N-((1R,2R)-2-(1-oxo-6-(5-(trifluoromethyl)-1,2,4-oxadiazol-3-yl)-1,3-dihydro-2H-isoindol-2-yl)cyclohexyl)oxetane-3-carboxamide] |
| 98% | 1% | 57% |  |  |  |  | CC(=O)N1CC(C)(C(=O)N[C@@H]2CCCC[C@H]2N2Cc3ccc(-c4noc(C(F)(F)F)n4)cc3C2=O)C1 [Example 195, 1-acetyl-3-methyl-N-((1R,2R)-2-(1-oxo-6-(5-(trif1uoromethyl)-1,2,4-oxadiazol-3-yl)-1,3-dihydro-2H-isoindol-2-yl)cyclohexyl)azetidine-3-carboxamide] |
